Results taken from patent US12291517B2, “Crystalline form of 6-(cyclopropanecarboxamido)-4-((2-methoxy-3-(1-methyl-1H-1,2,4-triazol-3-yl)phenyl)amino)-n-(methyl-D3) pyridazine-3-carboxamide” (Bristol-Myers Squibb Company, priority 2018, dated 2025).
Like-named read-outs stand apart in the source and are kept apart here. Values belong to the compound of their own block, whether it stands above or below them.

Assays:
[1] = Dog PK study, pH effect of free base vs. HCl salt; format: in vivo; conditions: for BA Mean / Cmax / Tmax / AUC(0-t): dog, capsule, 10 mg (1 mpk), famotidine treated (Famo); for Cmax / Tmax / AUC(0-t): in vivo, po, 1 mg/kg; for AUC(0-t): read-out: AUC0-24 h Mean
Description: In famotidine treated dogs, the mean bioavailability of the HCl salt is 60% higher than the free base.

[2] = Micro-dissolution comparative study of potential salts (pH transfer model); format: physicochemical; parameters: AUC pH 2-6.5 Mean / AUC pH 6-6.5 Mean: unit not given beside the values; conditions: for pH-effect Ratio: AUC pH 6-6.5 over AUC pH 2-6.5
[3] = Dog PK study, pH effect of free base vs. HCl salt; format: in vivo; conditions: capsule, 10 mg (1 mpk), Penta
[4] = Physical and chemical stability of Form B on storage at different temperature and humidity; format: physicochemical
[5] = as above; format: physicochemical; remark: listed apart in the source
Description: Samples of Form B of Compound (I) were stored at different conditions of temperature and humidity for 4 weeks. The physical stability, characterized by DSC, TGA, and PXRD, were measured at 2 and 4 weeks.

[6] = Moisture sorption isotherm; format: physicochemical
Description: Moisture sorption isotherms were collected in a TA Instrument VTI-SA+Vapor Sorption Analyzer using approximately 10 mg of sample. The sample was dried at 60° C. until the loss rate of 0.0005 wt %/min was obtained for 10 minutes. The sample was tested at 25° C. and 3 or 4, 5, 15, 25, 35, 45, 50, 65, 75, 85, and 95% RH. Equilibration at each RH was reached when the rate of 0.0003 wt %/min for 35 minutes was achieved or a maximum of 600 minutes.

BA Mean [1]: 85.44% | Cmax [1]: 62.8 ng/mL | Tmax [1]: 3.5 h | AUC(0-t) [1]: 586 ng·h/mL | pH-effect Ratio [2]: 0.27 | AUC pH 2-6.5 Mean [2]: 6094.11 | AUC pH 6-6.5 Mean [2]: 1640.60 | BA Mean [3]: 100.00% | Cmax ([3]; in vivo, po, 1 mg/kg): 122 ng/mL | Tmax ([3]; in vivo, po, 1 mg/kg): 2.5 h | AUC(0-t) ([3]; in vivo, po, 1 mg/kg, read-out: AUC0-24 h Mean): 975 ng·h/mL
SMILES: [2H]C([2H])([2H])NC(=O)c1nnc(NC(=O)C2CC2)cc1Nc1cccc(-c2ncn(C)n2)c1OC [Compound (I), 6-(cyclopropanecarboxamido)-4-((2-methoxy-3-(1-methyl-1H-1,2,4-triazol-3-yl)phenyl)amino)-N-(methyl-d3)pyridazine-3-carboxamide]

% Assay ([4]; 5° C., 1 Month, corrected for water and total volatiles): 100.3% | % Assay ([4]; 5° C., 2 weeks): 98.31% | % Assay ([4]; 5° C., 3 Months, corrected for water and total volatiles): 100.9% | % Assay ([4]; 5° C., 4 weeks): 98.40% | % Assay ([4]; 5° C., 6 Months, corrected for water and total volatiles): 100.3% | % Assay ([4]; 5° C., 12 Months, corrected for water and total volatiles): 100.2% | % Assay ([4]; 25° C./60% RH (closed), 1 Month, corrected for water and total volatiles): 98.8% | % Assay ([4]; 25° C./60% RH (closed), 3 Months, corrected for water and total volatiles): 100.9% | % Assay ([4]; 25° C./60% RH (closed), 4 weeks): 98.39% | % Assay ([4]; 25° C./60% RH (closed), 6 Months, corrected for water and total volatiles): 99.4% | % Assay ([4]; 25° C./60% RH (closed), 12 Months, corrected for water and total volatiles): 99.9% | % Assay ([4]; 40° C./75% RH (open), 1 Month, corrected for water and total volatiles): 99.8% | % Assay ([4]; 40° C./75% RH (open), 2 weeks): 98.29% | % Assay ([4]; 40° C./75% RH (open), 3 Months, corrected for water and total volatiles): 98.7% | % Assay ([4]; 40° C./75% RH (open), 6 Months, corrected for water and total volatiles): 101.0% | % Assay ([4]; 40° C./75% RH (open), 12 Months, corrected for water and total volatiles): 100.3% | % Assay ([4]; 50° C., 2 weeks): 98.32% | % Assay ([4]; HIL/UV, 2 weeks): 98.44% | % Assay ([4]; −20° C., 1 Month, corrected for water and total volatiles): 99.9% | BA Mean [1]: 160.90% | Cmax [1]: 180 ng/mL | Tmax [1]: 2 h | AUC(0-t) [1]: 1340 ng·h/mL | Mean bioavailability higher than the free base ([1]; famotidine treated dogs, 1 mpk): 60% | % Assay ([5]; 5° C. (control), 2 weeks): 98.32% | % Assay ([5]; 25° C./60% RH (closed), 2 weeks): 98.26% | % Assay ([5]; 40° C./75% RH (open), 4 weeks): 98.37% | % Assay ([5]; 50° C., 4 weeks): 98.40% | % Assay ([5]; HIL/UV, 4 weeks): 98.44% | Chemical stability ([5]; storage conditions of Table 3, up to 4 weeks): no measure change in chemical stability | pH-effect Ratio [2]: 0.61 | AUC pH 2-6.5 Mean [2]: 12345.28 | AUC pH 6-6.5 Mean [2]: 7492.66 | Hygroscopicity [6]: non-hygroscopic | Moisture uptake ([6]; between 25 to 75% relative humidity at 25° C.): less than 0.5%
SMILES: Cl.[2H]C([2H])([2H])NC(=O)c1nnc(NC(=O)C2CC2)cc1Nc1cccc(-c2ncn(C)n2)c1OC [Form B of Compound (I), 6-(cyclopropanecarboxamido)-4-((2-methoxy-3-(1-methyl-1H-1,2,4-triazol-3-yl)phenyl)amino)-N-(methyl-d3)pyridazine-3-carboxamide HCl salt]
Physical stability (physical form) ([4]; by DSC, TGA and PXRD at 2 and 4 weeks, different temperature and humidity conditions): No change in the physical form was detected | Physical or chemical degradation ([4]; tested temperature and humidity conditions): no significant physical or chemical degradation | Mitigation of the pH effect ([2]; comparison of salts): mitigates the pH effect better than MSA and sulfate (SO4) salts

pH-effect Ratio [2]: 0.45 | AUC pH 2-6.5 Mean [2]: 12045.08 | AUC pH 6-6.5 Mean [2]: 5368.76
SMILES: CS(=O)(=O)O.[2H]C([2H])([2H])NC(=O)c1nnc(NC(=O)C2CC2)cc1Nc1cccc(-c2ncn(C)n2)c1OC [MSA salt]
